Test system: 186277-243-T-J2-PDC spheroids with HUVEC/MSC, viability
Experiment: Anticancer human tumor 186277-243-T-J2-PDC patient-derived colon adenocarcinoma cell line growth inhibition [CLK]
Conditions: for IC50: curve of first compound; for viability, T/C: stronger effect = lower value
Excerpt: A high-throughput screen of multi-cell type tumor spheroids was designed to identify active combinations of […] and targeted small molecules. Complex spheroids include a stromal component modeled by human endothelial cells (HUVEC) and fibroblasts modeled by human mesenchymal stem cells (MSCs). The concentration ranges selected for each drug and investigational agent were based upon clinically achievable concentrations if the clinical Cmax of the agent was known.
Compounds. The drugs and investigational agents: cirtuvivint (SM08502; NSC835563), CC-671 (NSC850746), vemurafenib (NSC761431), tapotoclax (NSC804041), sotorasib (NSC818433), adagrasib (NSC831453), MRTX-1133 (NSC836407), BAY2416964 (NSC825713), copanlisib (NSC816437), inavolisib (NSC800729), abemaciclib (NSC768073), osimertinib (NSC779217), entinostat (NSC756642), eltanexor (KPT-8602, NSC794443), venetoclax (NSC766270), ceralasertib (NSC777638), bortezomib (NSC756655), olaparib (NSC753686), talazoparib (NSC767125), alisertib (NSC759677), peposertib (NSC802822), gemcitabine (NSC613327), 5-fluorouracil (NSC19893), SN-38 (NSC673596), oxaliplatin (NSC266046), paclitaxel (NSC125973), and doxorubicin (NSC123127), were obtained from the National Cancer Institute (NCI) Developmental Therapeutics Program Chemical Repository. The FDA-approved anticancer drug set is available from the Developmental Therapeutics Program at https://dtp.cancer.gov/organization/dscb/obtaining/available plates.htm. […] The stock solutions were prepared in dimethyl sulfoxide (DMSO, Sigma-Aldrich, St. Louis, MO, cat. D2650), except for the platinum complexes which were prepared in saline (Quality Biological, Gaithersburg, MD, cat. 114-055-101), at 800-fold the tested concentration and stored at -70 degrees C prior to their use. All drugs and investigational agents were tested over a range starting from a high concentration at or near the clinical Cmax and decreasing in half-log increments. If the clinical Cmax for an agent had not been determined, the highest concentration tested was 10 microM.
Cell Culture. All cells were maintained in an incubator at 37 degrees C and 5% CO2 with 95% humidity. The PDC lines were cultured according to standard operating procedures established by the NCI PDMR. Briefly, all PDCs were thawed and cultured in Matrigel-coated flasks prepared with a working solution of 1X Ham's F-12 nutrient mix, without supplementation (Invitrogen, Waltham, MA, cat. 11765054), 100 U/mL penicillin-streptomycin (Invitrogen, cat. 15140122), and 2.5% Matrigel (Corning Inc., Corning, NY, cat. 354248) for the first three passages. The 947758-054-R-J2-PDC line was cultured in 6B/Colon 1A media, which includes advanced DMEM/F-12 (Thermo Fisher Scientific, cat. 12634028), 10 mM HEPES (Thermo Fisher Scientific, cat. 15630080), 1X GlutaMAX supplement (Thermo Fisher Scientific, cat. 35050061), 0.1 mg/mL primocin (InvivoGen, cat. ant-pm-2), 10% defined fetal bovine serum, heat inactivated (HyClone Laboratories Inc., cat. SH30070.03HI), 1.25 mM N-Acetyl-L-cysteine (Sigma-Aldrich, cat. A9165), 10 mM nicotinamide (Sigma-Aldrich, cat. N0636), 1X B-27 supplement (Thermo Fisher Scientific, cat. 17504044), 1X N-2 supplement (Thermo Fisher Scientific, cat. 17502048), and 10 microM Y-27632 dihydrochloride (Tocris Bioscience, cat. 1254). The 876862-298-R-J1-PDC was cultured in 6E media, which includes all 6B/Colon 1A media components plus 50% L-WRN conditioned media (ATCC, cat. CRL-3276), 50 ng/mL recombinant human EGF recombinant protein (hEGF; Thermo Fisher Scientific, cat. PHG0311), 10 ng/mL recombinant human fibroblast growth factor 10 (hGFG-10; PeproTech, cat. 100-26), 1 ng/mL recombinant human fibroblast growth factor 2 (hFGF-2; PeproTech, cat. 100-18B), and 1 µM prostaglandin E2 (PGE2; Tocris, cat. 2296). The 227483-062-R1-J1-PDC line was cultured in Panc media, containing all 6E components except hFGF-2, with the addition of 500 nM SB-431542 (Selleckchem, cat. S1067) and 10 nM gastrin (Tocris, cat. 3006). […]

[1] = second compound 0.0316 µM, first compound 0.0316 µM
[2] = second compound 0.0316 µM, first compound 0.1 µM
[3] = second compound 0.0316 µM, first compound 0.316 µM
[4] = second compound 0.0316 µM, first compound 1 µM
[5] = second compound 0.0316 µM, first compound 3.16 µM
[6] = second compound 0.0316 µM, first compound 10 µM
[7] = second compound 0.1 µM, first compound 0.0316 µM
[8] = second compound 0.1 µM, first compound 0.1 µM
[9] = second compound 0.1 µM, first compound 0.316 µM
[10] = second compound 0.1 µM, first compound 1 µM
[11] = second compound 0.1 µM, first compound 3.16 µM
[12] = second compound 0.1 µM, first compound 10 µM
[13] = second compound 0.316 µM, first compound 0.0316 µM
[14] = second compound 0.316 µM, first compound 0.1 µM
[15] = second compound 0.316 µM, first compound 0.316 µM
[16] = second compound 0.316 µM, first compound 1 µM
[17] = second compound 0.316 µM, first compound 3.16 µM
[18] = second compound 0.316 µM, first compound 10 µM
[19] = second compound 1 µM, first compound 0.0316 µM
[20] = second compound 1 µM, first compound 0.1 µM
[21] = second compound 1 µM, first compound 0.316 µM
[22] = second compound 1 µM, first compound 1 µM
[23] = second compound 1 µM, first compound 3.16 µM
[24] = second compound 1 µM, first compound 10 µM
[25] = second compound 3.16 µM, first compound 0.0316 µM
[26] = second compound 3.16 µM, first compound 0.1 µM
[27] = second compound 3.16 µM, first compound 0.316 µM
[28] = second compound 3.16 µM, first compound 1 µM
[29] = second compound 3.16 µM, first compound 3.16 µM
[30] = second compound 3.16 µM, first compound 10 µM
[31] = second compound 10 µM, first compound 0.0316 µM
[32] = second compound 10 µM, first compound 0.1 µM
[33] = second compound 10 µM, first compound 0.316 µM
[34] = second compound 10 µM, first compound 1 µM
[35] = second compound 10 µM, first compound 3.16 µM
[36] = second compound 10 µM, first compound 10 µM
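Also: compound exposure lasted seven days before readout.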
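For viability, T/C in this document: 100% = DMSO vehicle control wells.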

SMILES: O=c1[nH]cc(F)c(=O)[nH]1 + CNC(=O)c1ccc(Nc2nc(OC3CCCC3)c3c(-c4ccc5nc(C)oc5c4)c[nH]c3n2)c(OC)c1
- IC50 (second compound 0.0316 µM): > 10000 nM
- IC50 (second compound 0.1 µM): 5330 nM
- IC50 (second compound 0.316 µM): < 31.6 nM
- IC50 (second compound 1 µM): < 31.6 nM
- IC50 (second compound 3.16 µM): < 31.6 nM
- IC50 (second compound 10 µM): < 31.6 nM
- viability, T/C [1]: 97.9%
- viability, T/C [2]: 95.6%
- viability, T/C [3]: 109%
- viability, T/C [4]: 102%
- viability, T/C [5]: 86.2%
- viability, T/C [6]: 56.8%
- viability, T/C [7]: 70.6%
- viability, T/C [8]: 66.2%
- viability, T/C [9]: 64.2%
- viability, T/C [10]: 61.5%
- viability, T/C [11]: 58.1%
- viability, T/C [12]: 42.1%
- viability, T/C [13]: 43.7%
- viability, T/C [14]: 43.6%
- viability, T/C [15]: 39.4%
- viability, T/C [16]: 41%
- viability, T/C [17]: 37.3%
- viability, T/C [18]: 25.6%
- viability, T/C [19]: 30.9%
- viability, T/C [20]: 29.4%
- viability, T/C [21]: 28.1%
- viability, T/C [22]: 28.6%
- viability, T/C [23]: 24.9%
- viability, T/C [24]: 15%
- viability, T/C [25]: 27.6%
- viability, T/C [26]: 26.9%
- viability, T/C [27]: 24.8%
- viability, T/C [28]: 28.3%
- viability, T/C [29]: 24.4%
- viability, T/C [30]: 12.1%
- viability, T/C [31]: 30.1%
- viability, T/C [32]: 30.3%
- viability, T/C [33]: 29.4%
- viability, T/C [34]: 29.2%
- viability, T/C [35]: 27.6%
- viability, T/C [36]: 12%

SMILES: CC(=O)O[C@H]1C(=O)[C@@]2(C)[C@H]([C@H](OC(=O)c3ccccc3)[C@]3(O)C[C@H](OC(=O)[C@H](O)[C@@H](NC(=O)c4ccccc4)c4ccccc4)C(C)=C1C3(C)C)[C@]1(OC(C)=O)CO[C@@H]1C[C@@H]2O + CNC(=O)c1ccc(Nc2nc(OC3CCCC3)c3c(-c4ccc5nc(C)oc5c4)c[nH]c3n2)c(OC)c1
- IC50 (second compound 0.0316 µM): 260 nM
- IC50 (second compound 0.1 µM): > 10000 nM
- IC50 (second compound 0.316 µM): < 31.6 nM
- IC50 (second compound 1 µM): < 31.6 nM
- IC50 (second compound 3.16 µM): < 31.6 nM
- IC50 (second compound 10 µM): < 31.6 nM
- viability, T/C [1]: 73.2%
- viability, T/C [2]: 73.2%
- viability, T/C [3]: 45.2%
- viability, T/C [4]: 26.3%
- viability, T/C [5]: 27.7%
- viability, T/C [6]: 59.1%
- viability, T/C [7]: 64.4%
- viability, T/C [8]: 85.1%
- viability, T/C [9]: 128%
- viability, T/C [10]: 142%
- viability, T/C [11]: 156%
- viability, T/C [12]: 166%
- viability, T/C [13]: 40.4%
- viability, T/C [14]: 64%
- viability, T/C [15]: 96%
- viability, T/C [16]: 105%
- viability, T/C [17]: 110%
- viability, T/C [18]: 94.6%
- viability, T/C [19]: 31.5%
- viability, T/C [20]: 44.1%
- viability, T/C [21]: 53.2%
- viability, T/C [22]: 53.3%
- viability, T/C [23]: 61%
- viability, T/C [24]: 65.5%
- viability, T/C [25]: 32.4%
- viability, T/C [26]: 44.6%
- viability, T/C [27]: 40.2%
- viability, T/C [28]: 48.4%
- viability, T/C [29]: 44.7%
- viability, T/C [30]: 50%
- viability, T/C [31]: 30.1%
- viability, T/C [32]: 36.4%
- viability, T/C [33]: 41%
- viability, T/C [34]: 39.5%
- viability, T/C [35]: 45.2%
- viability, T/C [36]: 47.6%

SMILES: CC(Nc1ccc2c(c1)OCCn1cc(N3C(=O)OCC3C(F)F)nc1-2)C(N)=O (stereo unspecified) + CN1CCN(c2cc(C(=O)Nc3cc4cc(-c5cnn(C)c5)ccc4cn3)ccn2)CC1
- IC50 (second compound 0.0316 µM): 828 nM
- IC50 (second compound 0.1 µM): 158 nM
- IC50 (second compound 0.316 µM): < 31.6 nM
- IC50 (second compound 1 µM): < 31.6 nM
- IC50 (second compound 3.16 µM): < 31.6 nM
- IC50 (second compound 10 µM): < 31.6 nM
- viability, T/C [1]: 87.7%
- viability, T/C [2]: 94.8%
- viability, T/C [3]: 59.2%
- viability, T/C [4]: 55.8%
- viability, T/C [5]: 46.4%
- viability, T/C [6]: 42.4%
- viability, T/C [7]: 71.8%
- viability, T/C [8]: 54.4%
- viability, T/C [9]: 42.3%
- viability, T/C [10]: 30.4%
- viability, T/C [11]: 19.4%
- viability, T/C [12]: 13.4%
- viability, T/C [13]: 20.5%
- viability, T/C [14]: 17.4%
- viability, T/C [15]: 7.85%
- viability, T/C [16]: 3.43%
- viability, T/C [17]: 2.25%
- viability, T/C [18]: 1.31%
- viability, T/C [19]: 0.25%
- viability, T/C [20]: 0.73%
- viability, T/C [21]: 0.91%
- viability, T/C [22]: 0.46%
- viability, T/C [23]: 0.47%
- viability, T/C [24]: 1.48%
- viability, T/C [25]: 1.24%
- viability, T/C [26]: 0.72%
- viability, T/C [27]: 1.34%
- viability, T/C [28]: 0.69%
- viability, T/C [29]: 0.82%
- viability, T/C [30]: 0.74%
- viability, T/C [31]: 0.96%
- viability, T/C [32]: 1.39%
- viability, T/C [33]: 0.74%
- viability, T/C [34]: 0.87%
- viability, T/C [35]: 0.87%
- viability, T/C [36]: 0.69%

Source: PubChem BioAssay AID2060625 (Molecular Pharmacology Branch, DTP, NCI, 2025)
